Test: Oxidized product content by HPLC on storage
Format: physicochemical
Description: In order to clarify that the polypeptides of the present invention are not easily oxidized, oxidized product content (%) of Arg^17 -PACAP27 obtained in Example 1 below were assayed when stored both in lyophylization and in aqueous acetic acid. The assay of the oxidized product content (%) were conducted on High Performance Liquid Chromatography (HPLC). Conditions of HPLC are as follows:
Solution A 0.1% aqueous trifluoroacetic acid
Solution B acetonitrile containing 0.1% trifluoroacetic acid
A linear gradient elution from solution A to solution
Elution time of Arg^17 -PACAP27:19.9 min

CC[C@H](C)[C@H](NC(=O)CNC(=O)[C@H](CC(=O)O)NC(=O)[C@H](CO)NC(=O)[C@@H](N)Cc1c[nH]cn1)C(=O)N[C@@H](Cc1ccccc1)C(=O)N[C@H](C(=O)N[C@@H](CC(=O)O)C(=O)N[C@@H](CO)C(=O)N[C@@H](Cc1ccc(O)cc1)C(=O)N[C@@H](CO)C(=O)N[C@@H](CCCNC(=N)N)C(=O)N[C@@H](Cc1ccc(O)cc1)C(=O)N[C@@H](CCCNC(=N)N)C(=O)N[C@@H](CCCCN)C(=O)N[C@@H](CCC(N)=O)C(=O)N[C@@H](CCCNC(=N)N)C(=O)N[C@@H](C)C(=O)N[C@H](C(=O)N[C@@H](CCCCN)C(=O)N[C@@H](CCCCN)C(=O)N[C@@H](Cc1ccc(O)cc1)C(=O)N[C@@H](CC(C)C)C(=O)N[C@@H](C)C(=O)N[C@@H](C)C(=O)N[C@H](C(=O)N[C@@H](CC(C)C)C(N)=O)C(C)C)C(C)C)[C@@H](C)O [Arg^17 -PACAP27]
0%: Oxidized product (%) just after synthesizing (just after synthesizing) | Oxidized product (%) aqueous acetic acid (stored in aqueous acetic acid) | Oxidized product (%) lyophilization store (stored in lyophilization)

Reference: US5623050A, “Stable polypeptides having c-AMP production enhancing activity and the use thereof” (Takeda Chemical Industries, Ltd., priority 1991, dated 1997)
